Test results reported in the supplement of paper PMC4862054.

Legend:
DU-4475 [1] = test: normalised viability (% of control), CellTiter-Blue; higher = more viable cells (about 100 = DMSO control); details: incubation time: 72 h
Procedure: (§1)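 DSRT, CellTiter-Blue viability, 72 h incubation. Signal is normalised to DMSO and benzethonium chloride controls. Value is the normalised response at dose 9.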

CAL-85-1 [2] = test: as above; details: incubation time: 72 h
Procedure: as §1

DU-4475 [3] = details: 72 h
Outline: (§2)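 Two sequential readouts followed a 72 h incubation of breast cancer cell lines with compound at 5 concentrations in 10-fold steps over a compound-specific 10,000-fold range: CellTox Green fluorescence (485/520 nm) for cell death, then CellTiter-Glo luminescence, after 10 min at room temperature, for viability. Each plate was normalised to 0.1 % DMSO and a positive kill control. Dose-response curves were fitted for EC50, censored at the top concentration.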

MFM-223 [4] = details: 72 h
Outline: as §2

CAL-148 [5] = details: 72 h
Outline: as §2

HCC1599 [6] = details: 72 h
Outline: as §2

HDQ-P1 [7] = details: 72 h
Outline: as §2

DU-4475 [8] = details: 72 h; remark: listed apart in the source
Outline: (§3)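 Compound dissolved in 5 µl medium was placed in 384-well plates before 20 µl of breast cancer cell suspension was added, and the plates were incubated for 72 h. Cells then received 2.5 µl CellTiter-Blue for 2 h at 37 °C, and fluorescence was read at 560/590 nm. EC50 values come from percent-inhibition dose-response fits that were censored at the highest concentration, with plates normalised to vehicle and a positive kill control and rows with a zero drug sensitivity score excluded.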

CAL-148 [9] = details: 72 h; remark: listed apart in the source
Outline: as §3

CAL-85-1 [10] = details: 72 h
Outline: as §3

CAL-51 [11] = details: 72 h
Outline: as §3

HDQ-P1 [12] = details: 72 h; remark: listed apart in the source
Outline: as §3

BT-549 [13] = details: 72 h
Outline: as §3

HCC1937 = details: 72 h
Outline: as §3

HCC1143 [14] = details: 72 h
Outline: as §3

MFM-223 [15] = details: 72 h; remark: listed apart in the source
Outline: as §3

Hs578T [16] = details: 72 h
Outline: as §3

SK-BR-3 = details: 72 h
Outline: as §3

CAL-120 [17] = details: 72 h
Outline: as §3

MDA-MB-231 [18] = details: 72 h
Outline: as §3

MDA-MB-468 [19] = details: 72 h
Outline: as §3

HCC1599 [20] = details: 72 h; remark: listed apart in the source
Outline: as §3

BT-474 [21] = details: 72 h
Outline: as §3

CAL-85-1 [22] = details: 72 h; remark: listed apart in the source
Procedure: (§4)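 Drug sensitivity and resistance testing (DSRT) of breast cancer cell lines in 384-well plates, 5 concentrations in 10-fold dilutions over a compound-specific 10,000-fold range. After 72 h, cytotoxicity was read by CellTox Green fluorescence and viability by CellTiter-Glo luminescence (multiplexed), normalised to DMSO and benzethonium chloride controls. EC50 is the inflection point of the fitted dose-response curve (bottom asymptote free, so it can be relative for partial curves) and is censored at the highest tested concentration. Rows with DSS 0 (no meaningful response) were excluded.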

CAL-51 [23] = details: 72 h; remark: listed apart in the source
Procedure: as §4

HCC1143 [24] = details: 72 h; remark: listed apart in the source
Outline: as §2

MDA-MB-436 = details: 72 h
Outline: as §3

Hs578T [25] = details: 72 h; remark: listed apart in the source
Procedure: as §4

CAL-148 [26] = details: 72 h; remark: listed apart in the source
Procedure: as §4

CAL-120 [27] = details: 72 h; remark: listed apart in the source
Procedure: as §4

MDA-MB-231 [28] = details: 72 h; remark: listed apart in the source
Procedure: as §4

BT-549 [29] = details: 72 h; remark: listed apart in the source
Procedure: as §4

MFM-223 [30] = details: 72 h; remark: listed apart in the source
Procedure: as §4

MDA-MB-468 [31] = details: 72 h; remark: listed apart in the source
Procedure: as §4

HCC1599 [32] = details: 72 h; remark: listed apart in the source
Procedure: as §4

BT-474 [33] = details: 72 h; remark: listed apart in the source
Procedure: as §4

MCF-10A = details: 72 h
Procedure: as §4

EC50, CellTiter-Glo (HCC1599 [6]) [nM] | EC50, CellTiter-Blue viability (BT-549 [13]) [nM] | EC50, CellTiter-Blue viability (HCC1937) [nM] | EC50, CellTiter-Blue viability (HCC1143 [14]) [nM] | EC50, CellTiter-Blue viability (SK-BR-3) [nM] | EC50, CellTiter-Blue viability (MDA-MB-231 [18]) [nM] | EC50, CellTiter-Blue viability (MDA-MB-468 [19]) [nM] | EC50, CellTiter-Blue viability (HCC1599 [20]) [nM] | EC50, CellTiter-Blue viability (BT-474 [21]) [nM] | EC50, CellTiter-Glo (HCC1143 [24]) [nM] | EC50, CellTiter-Blue viability (MDA-MB-436) [nM] | Structure (SMILES) | normalised viability (DU-4475 [1]; 10000 nM) [%] | normalised viability (CAL-85-1 [2]; 10000 nM) [%] | EC50, CellTiter-Glo (DU-4475 [3]) [nM] | EC50, CellTiter-Glo (MFM-223 [4]) [nM] | EC50, CellTiter-Glo (CAL-148 [5]) [nM] | EC50, CellTiter-Glo (HDQ-P1 [7]) [nM] | EC50, CellTiter-Blue viability (DU-4475 [8]) [nM] | EC50, CellTiter-Blue viability (CAL-148 [9]) [nM] | EC50, CellTiter-Blue viability (CAL-85-1 [10]) [nM] | EC50, CellTiter-Blue viability (CAL-51 [11]) [nM] | EC50, CellTiter-Blue viability (HDQ-P1 [12]) [nM] | EC50, CellTiter-Blue viability (MFM-223 [15]) [nM] | EC50, CellTiter-Blue viability (Hs578T [16]) [nM] | EC50, CellTiter-Blue viability (CAL-120 [17]) [nM] | EC50, CellTox Green (CAL-85-1 [22]) [nM] | EC50, CellTox Green (CAL-51 [23]) [nM] | normalised viability (DU-4475 [1]; 1000 nM) [%] | normalised viability (CAL-85-1 [2]; 1000 nM) [%] | EC50, CellTox Green (Hs578T [25]) [nM] | EC50, CellTox Green (CAL-148 [26]) [nM] | EC50, CellTox Green (CAL-120 [27]) [nM] | EC50, CellTox Green (MDA-MB-231 [28]) [nM] | EC50, CellTox Green (BT-549 [29]) [nM] | EC50, CellTox Green (MFM-223 [30]) [nM] | EC50, CellTox Green (MDA-MB-468 [31]) [nM] | EC50, CellTox Green (HCC1599 [32]) [nM] | EC50, CellTox Green (BT-474 [33]) [nM] | EC50, CellTox Green (MCF-10A) [nM]
8630 | 3730 | 101 | 7.7 | 540 | 97.8 | 5590 | 151 | 1450 |  |  | Cn1cncc1[C@@](N)(c1ccc(Cl)cc1)c1ccc2c(c1)c(-c1cccc(Cl)c1)cc(=O)n2C [Tipifarnib] | 15.7 | 47.2 | 412 | 5050 | 380 | 106 | 59.1 | 33 | 33.1 | 1500 | 16.6 | 1010 | 4400 | 55.5 | 4740 | 19.9 |  |  |  |  |  |  |  |  |  |  |  | 
973 | 340 | 99 |  | 597 | 676 | 578 | 331 | 613 | > 1000 | 43.5 | O=C1NC(=O)[C@@H](c2cn3c4c(cccc24)CCC3)[C@@H]1c1c[nH]c2ccccc12 [Tivantinib] |  |  | 222 |  | 810 |  | 847 | 759 | 543 | 674 |  |  | 592 | 398 | 266 | 671 | 36.9 | 33.9 | 96.6 | 6.67 | 399 | 474 |  |  |  |  |  | 
11.1 | 3.8 | 3.57 | 1.62 | 0.608 | 2.49 | 0.6 | 27.7 | 0.3 | 3.31 | 8.21 | CC[C@]1(O)C[C@H]2CN(CCc3c([nH]c4ccccc34)[C@@](C(=O)OC)(c3cc4c(cc3OC)N(C=O)[C@H]3[C@@](O)(C(=O)OC)[C@H](OC(C)=O)[C@]5(CC)C=CCN6CC[C@]43[C@@H]65)C2)C1 [Vincristine] | 8.66 | 39.8 | 157 | 19.9 | 6.48 | 2.22 | 17.9 | 8.72 | 5.33 | 26.7 | 11.2 | 16.9 | 2.72 | 1 | 2.39 | 28.1 | 7.67 | 47.4 | 85.1 |  |  | 5.49 | 9.1 | 20 | 9.6 | 489 | 4.19 | 4.1
